{"source": "patent US20120214821A1", "about": "“Lipidomic Biomarkers of Diabetes” (THE BROAD INSTITUTE, INC., priority 2011, published 2012)", "key": {"[1]": {"conditions": "20 non-diabetic individuals, after four doses of metformin 500 mg over two days; baseline 95 mg/dL; p=0.022", "experimental": "(§1) Pharmacologic studies were performed as follows. […] After a washout period of 6 days, subjects received metformin 500 mg twice daily for two days in order to reduce hepatic gluconeogenesis, and then underwent a 75 g OGTT in the presence of metformin. […] From the first 164 subjects completing the protocol, 20 participants were selected who represented both high and low ends of the HOMA-IR range.\n(§2) OGTT causes an acute rise in plasma glucose, which then triggers a rise in insulin.\n(§3) After a washout period of 6 days, these 20 individuals were then administered four doses of metformin (500 mg) over two days. Although chronic metformin use decreases insulin resistance, its acute effect is to decrease hepatic glucose output, and as a result, lower plasma insulin (10)."}, "plasma TAGs": {"tested_on": "plasma TAGs", "conditions": "20 non-diabetic individuals, after four doses of metformin 500 mg over two days (FIG. 6C)", "experimental": "as §1, §2, §3"}}}
{"compound": "CN(C)C(=N)N=C(N)N", "note": "[metformin]", "values": [{"measurement": "mean plasma glucose", "setting": "[1]", "value": 86, "unit": "mg/dL"}, {"measurement": "TAG response (change of plasma TAGs by carbon number and double bond content)", "setting": "plasma TAGs", "value": "an increase in TAGs of lower carbon number and double bond content, and a decrease in TAGs of higher carbon number and double bond content"}]}
